According to patent publication US8338425B2, “Heterocyclic kinase inhibitors” (Concert Pharmaceuticals, Inc., priority 2007, dated 2012):
Where two headings read alike, the source gives them in different places.

Assay: Human liver microsome (HLM) metabolic stability assay
Format: in vitro ADME
Conditions: pooled human liver microsomes, HLM 0.5 mg/mL, test compound 0.5 μM, NADPH, 37° C.
Procedure: Microsomal Assay: Human liver microsomes (20 mg/mL) were obtained from Xenotech, LLC (Lenexa, Kans.). β-nicotinamide adenine dinucleotide phosphate, reduced form (NADPH), magnesium chloride (MgCl2), and dimethyl sulfoxide (DMSO) were purchased from Sigma-Aldrich. The incubation mixtures were prepared according to Table 2:
Determination of Metabolic Stability: Two aliquots of this reaction mixture were used for a compound of this invention. The aliquots were incubated in a shaking water bath at 37° C. for 3 minutes. The test compound was then added into each aliquot at a final concentration of 0.5 μM. The reaction was initiated by the addition of cofactor (NADPH) into one aliquot (the other aliquot lacking NADPH served as the negative control). Both aliquots were then incubated in a shaking water bath at 37° C. Fifty microliters (50 μL) of the incubation mixtures were withdrawn in triplicate from each aliquot at 0, 5, 10, 20, and 30 minutes and combined with 50 μL of ice-cold acetonitrile to terminate the reaction. The same procedure was followed for dasatinib and for the positive control, 7-ethoxycoumarin. Testing was done in triplicate.
Data analysis: The in vitro half-lives (t1/2s) for test compounds were calculated from the slopes of the linear regression of % parent remaining (ln) vs incubation time relationship. in vitro t1/2=0.693/k
k=−[slope of linear regression of % parent remaining(ln) vs incubation time]
Data analysis was performed using Microsoft Excel Software.
The metabolic stability of compounds of Formula I was tested using pooled liver microsomal incubations. Full scan LC-MS analysis was then performed to detect major metabolites. Samples of the test compounds, exposed to pooled human liver microsomes, were analyzed using HPLC-MS (or MS/MS) detection. For determining metabolic stability, multiple reaction monitoring (MRM) was used to measure the disappearance of the test compounds. For metabolite detection, Q1 full scans were used as survey scans to detect the major metabolites.

[1] = 0-30 minutes, Experiment 1, read-out: t1/2 (min) Experiment 1
[2] = 0-30 minutes, Experiment 2, read-out: t1/2 (min) Experiment 2
[3] = average of Experiments 1 and 2, read-out: t1/2 (min) Average

| Compound | half-life at 0.5 μM [1] | half-life at 0.5 μM [2] | half-life at 0.5 μM [3] |
| --- | --- | --- | --- |
| [2H]C([2H])(O)CN1CCN(c2cc(Nc3ncc(C(=O)Nc4c(Cl)cccc4C([2H])([2H])[2H])s3)nc(C)n2)CC1 [Compound 101, N-(2-Chloro-6-(methyl-d3)phenyl)-2-(6-(4-(2,2-d2-2-hydroxyethyl)piperazin-1-yl)-2-methylpyrimidin-4-ylamino)thiazole-5-carboxamide] | 17.7 min | – | 17.9 min |
| [2H]C([2H])([2H])c1cccc(Cl)c1NC(=O)c1cnc(Nc2cc(N3CCN(C([2H])([2H])C([2H])([2H])O)CC3)nc(C)n2)s1 [Compound 103, N-(2-Chloro-6-(methyl-d3)phenyl)-2-(6-(4-(1,1,2,2-d4-2-hydroxyethyl)piperazin-1-yl)-2-methylpyrimidin-4-ylamino)thiazole-5-carboxamide] | 19.4 min | 17.2 min | 18.3 min |

Further lines, results first:

| half-life at 0.5 μM [1] | half-life at 0.5 μM [2] | half-life at 0.5 μM [3] | Compound |
| --- | --- | --- | --- |
| 16 min | 14.6 min | 15.3 min | Cc1nc(Nc2ncc(C(=O)Nc3c(C)cccc3Cl)s2)cc(N2CCN(CCO)CC2)n1 [Dasatinib, 2-{6-[4-(2-Hydroxy-ethyl)-piperazin-1-yl]-2-methyl-pyrimidin-4-ylamino}-thiazole-5-carboxylic acid (2-chloro-6-methyl-phenyl)-amide, reference compound] |
| 19.6 min | 18.5 min | 19.1 min | [2H]C1([2H])N(CCO)C([2H])([2H])C([2H])([2H])N(c2cc(Nc3ncc(C(=O)Nc4c(C)cccc4Cl)s3)nc(C)n2)C1([2H])[2H] [Compound 117, N-(2-Chloro-6-methylphenyl)-2-(6-(4-(2-hydroxyethyl)-(piperazin-d8)-1-yl)-2-methylpyrimidin-4-ylamino)thiazole-5-carboxamide] |
| 17.3 min | 18.2 min | 17.8 min | [2H]C([2H])([2H])c1cccc(Cl)c1NC(=O)c1cnc(Nc2cc(N3C([2H])([2H])C([2H])([2H])N(C([2H])([2H])C([2H])([2H])O)C([2H])([2H])C3([2H])[2H])nc(C)n2)s1 [Compound 115, N-(2-Chloro-6-(methyl-d3)phenyl)-2-(6-(4-(1,1,2,2-d4-2-hydroxyethyl)-(piperazin-d8)-1-yl)-2-methylpyrimidin-4-ylamino)thiazole-5-carboxamide] |
